Reference: BindingDB's records for doi:10.1016/j.bmcl.2006.07.014 (Glaxosmithkline, 2006)

Target: T1, Dimer of Gag-Pol polyprotein [501-599,Q508K,L534I,L564I,C568A,C596A] (Human immunodeficiency virus 1, UniProt P03367, C568A/C596A/L534I/L564I/Q508K)
T1 construct: 501-599
Test: Protease Inhibition Assay
Details: pH 6.4; 25 °C
Experimental: The Ki values were determined using fluorogenic substrate, 2-(aminobenzoyl)-Thr-Ile-Nle-Phe(p-NO2)-Gln-ArgNH2. A standard curve relating changes in fluorescent intensity to changes in concentration of product was used to convert fluorescent changes into molar velocities. The amount of cleavage was determined by HPLC.

Structure (SMILES) | Ki [nM]
COc1ccc(S(=O)(=O)N(CC2CCCC2)C[C@@H](O)CN2C(=O)C3(CCOCC3)OC[C@@H]2Cc2ccccc2)cc1 [(2S)-3-[(3S)-3-benzyl-5-oxo-1,9-dioxa-4-azaspiro[5.5]undecan-4-yl]-N-(cyclopentylmethyl)-2-hydroxy-N-(4-methoxyphenyl)propane-1-sulfonamido] | 23
COc1ccc(S(=O)(=O)N(CC2CCCC2)C[C@@H](O)CN2C(=O)COC[C@@H]2Cc2ccccc2)cc1 | 1000
